In BindingDB's records for patent US20240252496 (The Children’s Medical Center, 2024):

What was measured:
Assay in all cases: Conditioned place preference (CPP) assay
Histone deacetylase 1 = Histone deacetylase 1 (Homo sapiens, UniProt Q13547)
Histone deacetylase 2 = Histone deacetylase 2 (Homo sapiens, UniProt Q92769)
Histone deacetylase 3 = Histone deacetylase 3 (Homo sapiens, UniProt O15379)
Histone deacetylase 3, sequence (O15379 whole entry): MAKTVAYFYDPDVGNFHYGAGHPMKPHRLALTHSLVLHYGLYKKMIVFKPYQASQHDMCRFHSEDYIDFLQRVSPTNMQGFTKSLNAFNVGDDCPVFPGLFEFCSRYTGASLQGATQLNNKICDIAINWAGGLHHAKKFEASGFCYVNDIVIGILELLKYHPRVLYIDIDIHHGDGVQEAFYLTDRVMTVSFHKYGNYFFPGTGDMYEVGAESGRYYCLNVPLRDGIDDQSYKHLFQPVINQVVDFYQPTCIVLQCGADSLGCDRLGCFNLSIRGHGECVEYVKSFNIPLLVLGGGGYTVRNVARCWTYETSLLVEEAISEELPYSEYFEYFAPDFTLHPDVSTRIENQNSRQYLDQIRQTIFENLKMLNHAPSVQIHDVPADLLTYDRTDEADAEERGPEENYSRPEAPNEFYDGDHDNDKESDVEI

Histone deacetylase 2, sequence (Q92769 whole entry): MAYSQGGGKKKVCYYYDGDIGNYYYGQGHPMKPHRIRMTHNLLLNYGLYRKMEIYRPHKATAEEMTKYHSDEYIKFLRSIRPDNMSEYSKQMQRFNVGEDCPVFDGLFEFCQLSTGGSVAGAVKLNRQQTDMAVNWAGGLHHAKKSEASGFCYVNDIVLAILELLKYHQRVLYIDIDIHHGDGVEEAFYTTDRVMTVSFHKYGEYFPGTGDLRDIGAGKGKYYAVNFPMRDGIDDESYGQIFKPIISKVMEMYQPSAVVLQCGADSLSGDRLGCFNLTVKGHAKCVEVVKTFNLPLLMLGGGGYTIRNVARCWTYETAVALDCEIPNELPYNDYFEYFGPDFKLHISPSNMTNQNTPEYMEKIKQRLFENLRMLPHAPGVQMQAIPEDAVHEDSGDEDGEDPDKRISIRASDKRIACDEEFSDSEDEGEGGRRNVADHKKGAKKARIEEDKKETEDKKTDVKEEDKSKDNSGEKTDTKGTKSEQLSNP
Histone deacetylase 1, sequence (Q13547 whole entry): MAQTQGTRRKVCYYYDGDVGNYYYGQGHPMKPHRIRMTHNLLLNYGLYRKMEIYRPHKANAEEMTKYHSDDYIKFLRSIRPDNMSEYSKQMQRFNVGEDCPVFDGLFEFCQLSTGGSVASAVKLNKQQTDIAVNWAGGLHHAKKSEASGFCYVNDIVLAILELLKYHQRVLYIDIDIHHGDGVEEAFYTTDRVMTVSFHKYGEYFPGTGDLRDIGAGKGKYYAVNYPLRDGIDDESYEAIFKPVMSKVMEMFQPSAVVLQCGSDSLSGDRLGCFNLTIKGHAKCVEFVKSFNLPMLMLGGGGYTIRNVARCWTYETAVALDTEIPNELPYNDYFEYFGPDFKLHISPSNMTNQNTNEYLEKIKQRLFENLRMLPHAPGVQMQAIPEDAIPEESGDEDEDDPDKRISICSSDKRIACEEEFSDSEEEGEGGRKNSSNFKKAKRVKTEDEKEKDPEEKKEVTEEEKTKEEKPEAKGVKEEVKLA

COC(c1ccc(F)cc1)(c1ccc(F)cc1)c1ccc(C(=O)NCCCCCCC(=O)NO)cc1 [US20240252496, Example ACY-257]
IC50 (Histone deacetylase 1): 268 nM
IC50 (Histone deacetylase 2): 530 nM
IC50 (Histone deacetylase 3): 850 nM
